# Laboratory results: article PMC2603313, “Direct Inhibition of GSK3β by the Phosphorylated Cytoplasmic Domain of LRP6 in Wnt/β-Catenin Signaling” (PLoS ONE, 2008)
# Square brackets hold non-standard residues; d marks the D form. Ends that are not written are not given here. pT = C[C@@H](OP(=O)(O)O)[C@H](N)C(=O)O; pS = N[C@@H](COP(=O)(O)O)C(=O)O
# B1: GST-fused LRP6 miniCL (residues 1470–1510 of human LRP6), not phosphorylated (domain or fragment, UniProt O75581 1470-1510, looked up)
# chain: SSSSSSTKGTYFPAILNPPPSPATERSHYTMEFGYSSNSPS
# modifications: also: GST fusion (GST left off)
# notes: LRP6, human, intracellular fragment miniCL, residues 1470-1510 (Ser/Thr rich cluster and first PPPSPxS motif); also called GST-miniCL; LRP6 miniCL region; source: E. coli, purified (Glutathione-agarose, HiTrapQ)
# B2: dually-phosphorylated LRP6 PPPSPxS peptide (NPPPpSPApTERSH) (peptide)
# peptide: {biotin (sulfo-NHS-SS-biotin)}-NPPP[pS]PA[pT]ERSH-NH2
# notes: LRP6, first PPPSPxS motif; The biotin is joined by a disulfide that can be cut by reduction; the kinase buffer holds 10 mM 2-mercaptoethanol; also called PPP(p)SPx(p)S; dually-phosphorylated peptide; source: synthetic peptide (solid-phase synthesis)
# Tests used:
# GSK3β and CK1 = assay: Phosphorylation of GST-fusion proteins by GSK3β and CK1; type: biochemical; conditions: data not shown
# [1] = biological target: catalytic domain of mouse GSK3β (residues 27–393) (mouse) (UniProt Q9WV60)
# [2] = biological target: GSK3β catalytic domain, 27-393 (UniProt Q9WV60); assay: inhibition of GSK3β kinase activity, band shift; conditions: reference: non-phosphorylated peptide …; sites S1490
# Xenopus embryos = assay: Microinjection into Xenopus embryos, second body axis formation; type: in vivo, Xenopus laevis; conditions: peptide 1 ng co-injected with XWnt8 0.5 pg
# Description: It is well established that Wnt signaling reduces GSK3β activity during development of the Xenopus embryo [24], and that the suppressed activity of GSK3β induces a second body axis in the Xenopus embryo in the response to Wnt. To examine the in vivo effect of the PPPSPxS motif on Wnt/β-catenin signaling, we injected the synthetic peptides into Xenopus embryos, along with a small amount of Xenopus Wnt8 that is insufficient to induce second body axis formation on its own. […] It is likely that a slight reduction in the GSK3β activity due to the activity of the exogenous Wnt on the endogenous LRP6/5 is required for the peptide to cause a sufficient inhibition of GSK3β to trigger Wnt/β-catenin signaling. Moreover, even if the amount of peptide injected is well above physiological concentrations, the effect is specific to the phosphorylated peptide.
# Figure 3 The effect of the injected PPPSPxS peptides to the Xenopus embryos. Xenopus Wnt8 protein (XWnt8; 0.5 pg) was co-microinjected with each peptide (1 ng) into the ventrovegetal region of Xenopus embryos. […]
# Xenopus laevis was purchased from Xenopus I and Nasco. […] In vitro fertilization was performed as described previously, and the developmental stages of the embryos were determined according to Nieuwkoop and Faber. […]
# GSK3β [3] = biological target: T1, GSK3β (Mus musculus, UniProt Q9WV60); assay: In vitro GSK3β activity assay with synthetic peptides (phosphorylation of primed β-catenin N-terminal fragment); type: biochemical; conditions: primed β-catenin N-terminal fragment 7 µM, 1 mM ATP, pH 8.0, 30 min at 37°C, 4–7 independent experiments
# T1 construct: The catalytic domains of mouse GSK3β (residues 27–393) and CK1ε (residues 1–319) were expressed and purified; made in house
# Description: We synthesized one dually-phosphorylated (NPPPpSPApTERSH, where pS or pT designates a phosphorylated Ser or Thr residue), two singly-phosphorylated (NPPPSPApTERSH and NPPPp[…]) and one non-phosphorylated ([…]) peptides derived from the first PPPSPxS motif of LRP6 (Fig. 1A). To measure the GSK3β activity toward β-catenin in vitro, we utilized a β-catenin N-terminal fragment (residues 1–133), whose Ser45 was prephosphorylated by CK1, as a substrate (Ha et al., 2004). Each synthetic peptide was added to a reaction mixture containing the purified GSK3β enzyme and the substrate β-catenin N-terminal fragment. The GSK3β activity was determined through measurement of the intensity of the supershifted (retarded) β-catenin bands (Fig. S3), which represent the phosphorylated product species (Fig. S4), on an SDS-polyacrylamide gel (Figs. S3, S4, S5, S6, S7). […] This corresponds well with the results of Zeng et al., who reported that the first Ser residue in the PPPSPxS motif has a more important role in Wnt/β-catenin signaling than the second Ser residue.
# The catalytic domains of mouse GSK3β (residues 27–393) and CK1ε (residues 1–319) were expressed and purified as previously described. The N-terminal region (residues 1–133) of β-catenin was expressed in Escherichia coli as a GST-fusion protein with a TEV protease cleavage site and then purified using Glutathione-agarose. Subsequently, the GST tag was cleaved using recombinant TEV protease and was removed by repeated HiTrapQ anion-exchange chromatography. The N-terminal region of β-catenin was then phosphorylated by incubation with the catalytic domain of CK1ε (0.28 mg/ml) at 37°C for 20 min in 50 mM Tris buffer (pH 8.0) containing 10 mM MgCl2, 10 mM 2-mercaptoethanol, and 2 mM phenylmethylsulfonylfluoride. The phosphorylated β-catenin fragment was then further purified using HiTrapQ anion-exchange chromatography to remove the CK1ε enzyme. […]
# GSK3β [4] = conditions: toward full-length β-catenin; cited from earlier work
# Description: We next sought to determine if the phosphorylated LRP6 motifs are capable of inhibiting GSK3β in the Axin complex. An in vitro kinase assay with Axin-bound GSK3β was performed by adding the purified GSK3β binding domain (GBD) of Axin to the reaction mixture.
# [5] = biological target: T2, catalytic domain of mouse GSK3β (residues 27–393) (mouse, UniProt Q9WV60 27-393); assay: far-Western, overlay or dot blot; 15 µg GST-miniCL on PVDF; membrane incubated with GSK3β (2 µg/ml) and/or His-Axin (12 µg/ml) in TBST containing 1% skim milk; conditions: both partners purified
# T2 construct: GSK3β (glycogen synthase kinase 3 beta), mouse, catalytic domain, residues 27-393; also called recombinant GSK3β catalytic domain; source: recombinant, expressed and purified as previously described [32]
# [6] = biological target: T2, catalytic domain of mouse GSK3β …; assay: steady-state kinetics of enzyme inhibition (GSK3β kinase assay, band shift on SDS-PAGE); apparent Ki; 50 mM Tris pH 8.0, 10 mM MgCl2, 10 mM 2-mercaptoethanol, 1 mM ATP, 8 ng GSK3β catalytic domain, 6 µM primed β-catenin N-terminal fragment (1-133), 37°C; peptide 0, 1, 3, 10, 30 µM; (V0/Vi)−1 = [peptide]/Ki; conditions: both partners purified
molecule,measurement,setting,value
"GST-PPPAPxS: GST-fused LRP6 PPPAPxS, residues 1485–1497 with the substitution at Ser1490 (LNPPPAPATERSH; also: GST-fused, end not given here)",Phosphorylation by GSK3β and CK1,GSK3β and CK1,not phosphorylated
"GST-fused mouse Axin GBD (GSK3β binding domain, residues 512–530) (domain or fragment)",inhibition of in vitro GSK3β activity at above 2.5 µM of GST-Axin GBD,[1],20%
LRP6 (from UniProt O75581) pS1490 peptide NPPPpSPATERSH,binding against the reference,[2],gained
"NPPPpSPATERSH [PPP(p)SPxS, singly-phosphorylated peptide (first Ser/Thr) derived from the first PPPSPxS motif of LRP6]",Induction of second body axis,Xenopus embryos,induced the second body axis with an efficiency comparable to that of the dually-phosphorylated peptide
same,Inhibitory effect on GSK3β activity toward β-catenin,GSK3β [3]; at 100 µM,strong inhibitory effect close to that of the dually-phosphorylated peptide
full-length Axin: full-length Axin scaffold protein,Effect on GSK3β activity,GSK3β [4],increases GSK3β activity
"GST-PPPSPxS: GST-fused LRP6 PPPSPxS, residues 1485–1497 (LNPPPSPATERSH; also: GST-fused, end not given here)",Phosphorylation by GSK3β and CK1,GSK3β and CK1,not phosphorylated
"NPPPSPATERSH [PPPSPxS, non-phosphorylated peptide derived from the first PPPSPxS motif of LRP6]",Induction of second body axis,Xenopus embryos,did not
same,Inhibitory effect on GSK3β activity toward β-catenin,GSK3β [3]; at concentrations up to 100 µM,did not show any inhibitory effect on the GSK3β activity
B1,binding result,[5],binds
B2,Ki,[6],13 µM
